From US20140336220A1, “COMPOSITION FOR PREVENTING OR TREATING OBESITY COMPRISING REBAMIPIDE” (The Catholic University of Korea Industry-Academic …, priority 2011, published 2014)

Legend:
pre-adipocyte = experiment: Adipocyte differentiation of pre-adipocyte, Oil red O analysis; type: cell-based; details: vs untreated cells, dependent on dose of rebamipide, FIG. 8
Procedure: In order to check whether or not rebamipide has a […] inhibition effect, the inventors of the present disclosure divided pre-adipocyte in an amount of 1.2×10^4/2 ml into a 24-well plate, and when the cells were completely packed, the cells were cultured again for 48 hours. After 48 hours, differentiation of adipocyte was induced with replacement of a culture medium added with dexamethasone, insulin, and isobutylmethylxanthine. In this case, rebamipide was also used to stimulate while being dissolved in DMSO. 3 days after differentiation, differentiation of adipocyte was maintained with replacement with a culture medium added with dexamethasone and insulin once per two days. After 4 days, Oil red O analysis was carried out.

[1] = tested on: animal models induced with obesity; experiment: Weight reduction effect in mice induced with obesity using a high fat food; type: in vivo, C57BL/6(H-2kb) mouse; details: 300 mg/kg oral
Procedure: The inventors of the present disclosure prepared animal models induced with obesity in order to check whether rebamipide has an effect of treating obesity. As a test animal, a C57BL/6(H-2kb) mouse was used. In order to prepare animal models induced with obesity, a high fat food was fed to the animal models induced with obesity. After rebamipide was orally administered with a dose of 300 mg/kg to the animal models induced with obesity, weights of a rebamipide-treated group and a control group induced with obesity were measured.

[2] = tested on: Th17 cells and Treg cells in spleen; experiment: Th17 and Treg cells in spleen sections, confocal microscope; type: in vivo, mouse; details: obese mice treated with rebamipide, FIG. 5A, 5B
Excerpt: In order to investigate whether or not rebamipide according to the present disclosure affected Th17 and Treg, the inventors of the present disclosure embedded a frozen section (optimal cutting temperature compound: O.C.T. compound) using the spleen of a mouse and rapidly cooled the tissue in liquid nitrogen and attached the tissue on a slide to a thickness of 7 μm using a cryo microtome. Then, the section was fixed with acetone and coated with 10% normal goat serum and blocked from a non-specific reaction for 30 minutes. Thereafter, the section was reacted at 4° C. overnight with primary antibodies, i.e. FITC-labeled anti-mFoxp3 Ab, PElabeled anti-mCD4 Ab, and APC-labeled anti-CD25 Ab, diluted with PBS (pH 7.5) at a ratio of 1:100 for Treg analysis and reacted with FITC-labeled anti-mCD4 Ab, and PE-labeled anti-mIL-17 for Th17 cell analysis. On the next day, the section was washed with a PBS solution, and a stained tissue was analyzed with a confocal microscope.

[3] = tested on: animal group with obesity induced arthritis; experiment: Type-II-collagen-specific IgG and IgG2a in serum by ELISA; type: in vivo, mouse; details: serum 1:100, vs obesity induced arthritis group, FIG. 13
Procedure: Blood was collected from the heart of a mouse in each group and centrifuged at 8000 rpm for 8 minutes at 20° C., so that the mouse serum of each group was obtained from a supernatant of the blood. The serum was diluted at a ratio of 1:100, and type-II-collagen-specific IgG and IgG2a were measured by an ELISA method.

[4] = tested on: animal model with obesity induced arthritis; experiment: Arthritis index in obesity induced arthritis (collagen induced arthritis) model; type: in vivo, C57BL/6 mouse; details: 300 mg/kg oral, 10 times, three times per week, up to 61 days, FIG. 11
spleen cells = experiment: Spleen cell proliferation after aCD3 stimulation, thymidine; type: cell-based, mouse; details: FIG. 7B
Procedure: The spleen was extracted from the mouse of each group and spleen cells 2×10^5 of each mouse were divided into a 96-well plate and stimulated with 0.5 μg/ml of aCD3 and then cultured for 3 days. 16 hours before acquirement, the cells were stimulated with thymidine of […], and then, 16 hours after stimulation, proliferation of the mouse cells was measured.

[5] = tested on: animal model with collagen induced arthritis (CIA); experiment: Histological inspection of joints in collagen induced arthritis model; type: in vivo, mouse; details: 300 mg/kg oral, after 61 days, H&E, Toluidine blue, safranin O, FIG. 12
Procedure: Each animal model with collagen induced arthritis (CIA) was orally administered with rebamipide with a dose of 300 mg/kg. After 61 days, euthanasia was administered to the experimental animals. Then, hind legs of the mouse were fixed with 10% formalin, and compounds of calcium were removed from the bone and paraffin was coated. A section of the joint (7 μm) was prepared and stained with hematoxylin and eosin. Further, in order to check damage of cartilage, a histological inspection was carried out by staining with Toluidine blue and safranin O.

[6] = tested on: animal models induced with obesity; experiment: Obesity improvement depending on dose: weight and liver; type: in vivo, mouse
Procedure: In order to check an obesity improvement effect depending on a treatment concentration of rebamipide, the inventors of the present disclosure orally administered rebamipide with a dose of 30 mg/kg and 100 mg/kg to an animal models induced with obesity prepared in Example 1 and then measured weights of the rebamipide treatment group and a mouse induced with obesity as a control group. For in vitro test, on the 63rd day after treatment with rebamipide, an experimental animal was killed and the liver of the mouse was extracted, and then, a size of the mouse and a weight of the liver were measured with the naked eye.

adipocyte = experiment: Real time PCR of adipogenic and brown fat genes in differentiated adipocyte; type: cell-based; details: FIG. 9
Procedure: The inventors of the present disclosure differentiated adipocyte by the method of Example <7-1>. 3 days after differentiation, differentiation of adipocyte was maintained with replacement with a culture medium added with dexamethasone and insulin once per two days, and after 4 days, the cells were treated with trizol and RNA was separated therefrom and cDNA was synthesized. Then, by real time PCR, mRNA expression of c/EBP, adiponectin, Leptin aP2, GLTU, and Cytochrome C1 as proadipogenic transcription factors was observed.

[7] = well treated with 20 μm of rebamipide

O=C(NC(Cc1cc(=O)[nH]c2ccccc12)C(=O)O)c1ccc(Cl)cc1 (stereo not shown) [rebamipide, 2-(4-chlorobenzoylamino)-3-[2(1H)-quinolinon-4-yl]propionic acid]
differentiation of adipocyte (Oil red O) (pre-adipocyte): differentiation of adipocyte did not occur | liver appearance with the naked eye ([1]; killed on the 51st day, FIG. 1B): bright red like a liver of a normal mouse | weight ([1]; obese mice on high fat food, vs control group, FIG. 1A): statistically significantly decreased | Treg cells in spleen [2]: increased | expression of Th17 in spleen [2]: reduced | type-II-collagen-specific IgG2a in serum [3]: significantly decreased | type-II-collagen-specific IgG in serum [3]: significantly decreased | arthritis index [4]: decreased | effect on proliferation of spleen cells (spleen cells; 100 mg/kg oral, compared between doses): higher | proliferation of spleen cells (spleen cells; spleen cells of orally treated mice, 0.5 μg/ml aCD3, 3 days): inhibition of cell proliferation was decreased | damage of the joint and cartilage (histology) [5]: damage of the joint and cartilage was not severe and maintained similarly to a normal mouse | weight ([6]; 30 mg/kg and 100 mg/kg oral, vs control group, FIG. 6A): statistically reduced | weight reduction effect ([6]; 30 mg/kg oral, FIG. 6A): a weight reduction effect was illustrated | liver appearance ([6]; 100 mg/kg oral, 63rd day, FIG. 6B): bright red similarly to a liver of a normal control mouse | weight reduction effect ([6]; 100 mg/kg oral, FIG. 6A): highest | mRNA expression of Cytochrome C1 (adipocyte; differentiated adipocyte): reduced depending on a concentration of rebamipide | mRNA expression of GLTU (adipocyte; differentiated adipocyte): reduced depending on a concentration of rebamipide | mRNA expression of Leptin (adipocyte; differentiated adipocyte): reduced depending on a concentration of rebamipide | mRNA expression of aP2 (adipocyte; differentiated adipocyte): reduced depending on a concentration of rebamipide | mRNA expression of adiponectin (adipocyte; differentiated adipocyte): reduced depending on a concentration of rebamipide | mRNA expression of c/EBP (adipocyte; differentiated adipocyte): reduced depending on a concentration of rebamipide | level of brown fat gene Cidea (adipocyte; [7]): increased | level of brown fat gene Cox7a1 (adipocyte; [7]): increased | level of brown fat gene Elov13 (adipocyte; [7]): increased | level of brown fat gene Fgf21 (adipocyte; [7]): increased
